{"source": "paper PMC9329436", "about": "“Optimization of the 4-anilinoquin(az)oline scaffold as epidermal growth factor receptor (EGFR) inhibitors for chordoma utilizing a toxicology profiling assay platform” (Scientific Reports, 2022)", "assay_type_in_all_cases": "biochemical", "key": {"[1]": {"target": "320 wild-type protein kinases (Homo sapiens, UniProt O75914)", "sequence (O75914 whole entry)": "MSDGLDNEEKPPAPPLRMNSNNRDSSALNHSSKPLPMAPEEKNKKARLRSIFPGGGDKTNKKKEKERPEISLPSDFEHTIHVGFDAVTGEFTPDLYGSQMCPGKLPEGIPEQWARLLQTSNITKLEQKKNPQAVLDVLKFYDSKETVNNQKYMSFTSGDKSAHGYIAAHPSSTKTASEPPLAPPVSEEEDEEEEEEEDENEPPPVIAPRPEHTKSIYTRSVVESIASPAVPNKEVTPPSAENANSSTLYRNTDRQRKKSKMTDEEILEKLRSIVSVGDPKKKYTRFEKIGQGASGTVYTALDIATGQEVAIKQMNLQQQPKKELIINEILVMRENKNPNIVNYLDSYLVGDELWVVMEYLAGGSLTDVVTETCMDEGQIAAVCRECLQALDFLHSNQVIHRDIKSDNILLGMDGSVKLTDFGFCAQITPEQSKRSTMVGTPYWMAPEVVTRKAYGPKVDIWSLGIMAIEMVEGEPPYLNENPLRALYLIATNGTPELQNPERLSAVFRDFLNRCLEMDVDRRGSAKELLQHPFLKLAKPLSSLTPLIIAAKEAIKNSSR", "conditions": "singlicate", "description": "(§1) Table S4. Profiling of two compounds at two concentrations against 320 wild-type protein kinases; singlicate measurement; Residual activities (% of control)."}, "[2]": {"target": "320 wild-type protein kinases (Homo sapiens, UniProt Q9P0L2)", "conditions": "singlicate", "description": "as §1"}, "[3]": {"target": "320 wild-type protein kinases (Homo sapiens, UniProt P05129)", "conditions": "PKC-gamma, singlicate", "description": "as §1"}, "[4]": {"target": "320 wild-type protein kinases (Homo sapiens, UniProt P42345)", "conditions": "mTOR, singlicate", "description": "as §1"}, "[5]": {"target": "T1, 320 wild-type protein kinases (Homo sapiens, UniProt P54762)", "T1 sequence (P54762 18-984)": "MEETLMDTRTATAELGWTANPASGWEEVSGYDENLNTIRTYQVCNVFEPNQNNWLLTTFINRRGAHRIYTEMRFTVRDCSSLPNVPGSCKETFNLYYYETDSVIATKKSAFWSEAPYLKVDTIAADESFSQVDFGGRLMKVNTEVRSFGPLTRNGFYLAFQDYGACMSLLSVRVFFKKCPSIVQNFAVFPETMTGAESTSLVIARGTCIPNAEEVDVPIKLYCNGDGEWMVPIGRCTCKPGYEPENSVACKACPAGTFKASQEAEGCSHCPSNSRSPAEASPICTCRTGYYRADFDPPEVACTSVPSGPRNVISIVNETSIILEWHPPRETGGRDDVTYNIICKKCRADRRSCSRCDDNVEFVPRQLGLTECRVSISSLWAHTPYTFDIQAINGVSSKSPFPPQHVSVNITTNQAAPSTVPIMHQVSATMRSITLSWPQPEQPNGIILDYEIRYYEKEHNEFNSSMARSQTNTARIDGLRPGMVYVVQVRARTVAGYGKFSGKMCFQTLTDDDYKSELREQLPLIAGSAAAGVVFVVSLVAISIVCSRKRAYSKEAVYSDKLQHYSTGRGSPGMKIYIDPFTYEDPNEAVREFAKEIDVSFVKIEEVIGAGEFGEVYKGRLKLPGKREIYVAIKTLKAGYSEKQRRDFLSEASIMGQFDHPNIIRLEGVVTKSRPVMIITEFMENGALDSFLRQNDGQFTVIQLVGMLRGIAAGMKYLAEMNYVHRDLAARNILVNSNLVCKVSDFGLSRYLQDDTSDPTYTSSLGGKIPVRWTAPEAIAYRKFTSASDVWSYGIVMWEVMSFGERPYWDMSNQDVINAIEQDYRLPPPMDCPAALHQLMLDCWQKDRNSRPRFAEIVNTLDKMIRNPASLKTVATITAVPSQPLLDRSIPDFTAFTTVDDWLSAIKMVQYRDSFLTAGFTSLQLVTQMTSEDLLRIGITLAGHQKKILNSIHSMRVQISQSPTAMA", "conditions": "singlicate", "description": "as §1"}, "[6]": {"target": "320 wild-type protein kinases (Homo sapiens, UniProt Q9NYL2)", "conditions": "kinase ZAK, singlicate", "description": "as §1"}, "[7]": {"target": "T2, 320 wild-type protein kinases (Homo sapiens, UniProt P42680)", "T2 sequence (P42680 1-631)": "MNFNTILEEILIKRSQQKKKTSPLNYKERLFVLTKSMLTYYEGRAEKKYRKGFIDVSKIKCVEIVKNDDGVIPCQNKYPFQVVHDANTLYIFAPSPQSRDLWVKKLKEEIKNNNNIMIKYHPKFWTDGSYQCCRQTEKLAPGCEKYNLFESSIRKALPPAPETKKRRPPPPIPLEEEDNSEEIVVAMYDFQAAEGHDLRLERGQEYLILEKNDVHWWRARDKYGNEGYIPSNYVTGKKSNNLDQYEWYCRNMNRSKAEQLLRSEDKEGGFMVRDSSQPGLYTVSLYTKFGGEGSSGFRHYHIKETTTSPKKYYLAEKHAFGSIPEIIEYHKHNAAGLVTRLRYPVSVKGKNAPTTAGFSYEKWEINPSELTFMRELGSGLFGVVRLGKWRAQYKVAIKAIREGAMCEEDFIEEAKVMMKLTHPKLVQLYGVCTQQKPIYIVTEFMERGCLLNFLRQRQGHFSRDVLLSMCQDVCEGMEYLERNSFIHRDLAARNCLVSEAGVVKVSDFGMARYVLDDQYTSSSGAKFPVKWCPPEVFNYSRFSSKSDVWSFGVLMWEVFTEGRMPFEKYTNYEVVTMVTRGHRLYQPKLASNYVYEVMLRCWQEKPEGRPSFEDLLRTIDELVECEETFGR", "conditions": "kinase TEC, singlicate", "description": "as §1"}, "[8]": {"target": "320 wild-type protein kinases (Homo sapiens, UniProt P29317)", "sequence (P29317 24-976)": "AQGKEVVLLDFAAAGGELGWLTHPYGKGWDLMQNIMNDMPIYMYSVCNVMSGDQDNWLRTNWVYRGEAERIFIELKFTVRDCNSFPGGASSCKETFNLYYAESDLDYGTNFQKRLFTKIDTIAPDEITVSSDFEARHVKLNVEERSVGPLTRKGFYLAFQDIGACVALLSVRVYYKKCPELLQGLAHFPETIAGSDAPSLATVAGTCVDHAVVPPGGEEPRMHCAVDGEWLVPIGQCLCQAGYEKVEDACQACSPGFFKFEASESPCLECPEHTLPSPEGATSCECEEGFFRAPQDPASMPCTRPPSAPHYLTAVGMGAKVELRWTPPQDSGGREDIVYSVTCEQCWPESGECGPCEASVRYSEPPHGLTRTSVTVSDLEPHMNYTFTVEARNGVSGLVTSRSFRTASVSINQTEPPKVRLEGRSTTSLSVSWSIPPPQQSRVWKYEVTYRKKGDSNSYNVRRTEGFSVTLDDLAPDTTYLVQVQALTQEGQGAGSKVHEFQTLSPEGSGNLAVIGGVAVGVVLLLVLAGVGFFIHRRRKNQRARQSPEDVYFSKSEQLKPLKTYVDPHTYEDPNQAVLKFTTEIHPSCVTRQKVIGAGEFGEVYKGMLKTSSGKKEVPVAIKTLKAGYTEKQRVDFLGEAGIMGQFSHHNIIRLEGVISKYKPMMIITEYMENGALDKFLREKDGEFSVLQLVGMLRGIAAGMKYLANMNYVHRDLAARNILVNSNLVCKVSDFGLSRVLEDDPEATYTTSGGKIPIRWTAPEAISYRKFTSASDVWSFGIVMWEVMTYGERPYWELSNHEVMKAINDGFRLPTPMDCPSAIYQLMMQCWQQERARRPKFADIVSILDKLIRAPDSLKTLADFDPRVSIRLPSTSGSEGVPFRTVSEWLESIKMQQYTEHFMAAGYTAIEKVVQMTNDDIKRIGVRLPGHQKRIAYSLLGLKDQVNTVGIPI", "conditions": "singlicate", "description": "as §1"}, "[9]": {"target": "320 wild-type protein kinases (Homo sapiens, UniProt P08631)", "sequence (P08631 whole entry)": "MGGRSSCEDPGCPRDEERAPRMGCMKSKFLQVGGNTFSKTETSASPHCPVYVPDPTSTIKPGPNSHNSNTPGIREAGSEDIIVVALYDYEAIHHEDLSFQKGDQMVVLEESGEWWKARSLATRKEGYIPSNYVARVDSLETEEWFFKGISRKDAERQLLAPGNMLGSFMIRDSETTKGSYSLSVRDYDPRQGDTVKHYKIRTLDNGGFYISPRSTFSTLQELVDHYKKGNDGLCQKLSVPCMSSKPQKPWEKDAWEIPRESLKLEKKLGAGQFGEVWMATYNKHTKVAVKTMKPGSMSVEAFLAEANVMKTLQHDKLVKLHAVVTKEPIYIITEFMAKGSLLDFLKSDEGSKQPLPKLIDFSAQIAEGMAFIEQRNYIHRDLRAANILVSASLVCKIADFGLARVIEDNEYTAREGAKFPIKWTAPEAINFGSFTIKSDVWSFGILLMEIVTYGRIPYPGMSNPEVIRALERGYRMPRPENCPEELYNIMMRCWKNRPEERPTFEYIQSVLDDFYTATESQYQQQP", "conditions": "HCK, singlicate", "description": "as §1"}, "[10]": {"target": "320 wild-type protein kinases (Homo sapiens, UniProt Q07912)", "sequence (Q07912 whole entry)": "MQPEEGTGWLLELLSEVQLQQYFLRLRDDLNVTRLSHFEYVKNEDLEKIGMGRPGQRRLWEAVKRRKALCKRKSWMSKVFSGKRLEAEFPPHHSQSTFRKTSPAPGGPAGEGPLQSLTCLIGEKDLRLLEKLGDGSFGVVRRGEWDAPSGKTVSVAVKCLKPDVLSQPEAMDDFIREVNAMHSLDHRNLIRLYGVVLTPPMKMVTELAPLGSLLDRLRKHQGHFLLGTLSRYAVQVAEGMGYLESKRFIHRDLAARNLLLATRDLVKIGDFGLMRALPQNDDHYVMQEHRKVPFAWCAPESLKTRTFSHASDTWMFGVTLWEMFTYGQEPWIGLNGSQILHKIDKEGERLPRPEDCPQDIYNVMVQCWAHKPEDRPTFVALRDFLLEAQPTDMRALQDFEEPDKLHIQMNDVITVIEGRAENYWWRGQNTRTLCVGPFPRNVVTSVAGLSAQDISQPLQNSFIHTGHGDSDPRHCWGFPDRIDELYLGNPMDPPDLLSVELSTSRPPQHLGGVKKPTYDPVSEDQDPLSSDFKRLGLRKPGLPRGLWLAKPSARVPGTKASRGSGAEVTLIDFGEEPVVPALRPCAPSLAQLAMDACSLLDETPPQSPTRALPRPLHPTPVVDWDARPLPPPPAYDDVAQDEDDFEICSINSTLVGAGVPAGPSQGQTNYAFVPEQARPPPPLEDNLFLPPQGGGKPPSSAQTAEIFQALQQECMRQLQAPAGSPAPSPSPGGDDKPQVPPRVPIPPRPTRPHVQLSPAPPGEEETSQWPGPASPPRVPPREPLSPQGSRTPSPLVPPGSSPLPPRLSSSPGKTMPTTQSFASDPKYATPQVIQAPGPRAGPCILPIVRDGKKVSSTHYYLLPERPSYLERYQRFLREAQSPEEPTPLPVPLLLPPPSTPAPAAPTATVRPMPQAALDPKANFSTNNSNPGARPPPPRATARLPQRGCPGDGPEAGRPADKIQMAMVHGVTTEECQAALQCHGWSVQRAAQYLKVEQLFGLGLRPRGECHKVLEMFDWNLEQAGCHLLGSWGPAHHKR", "conditions": "singlicate", "description": "as §1"}, "[11]": {"target": "320 wild-type protein kinases (Homo sapiens, UniProt Q9UM73)", "sequence (Q9UM73 19-1620)": "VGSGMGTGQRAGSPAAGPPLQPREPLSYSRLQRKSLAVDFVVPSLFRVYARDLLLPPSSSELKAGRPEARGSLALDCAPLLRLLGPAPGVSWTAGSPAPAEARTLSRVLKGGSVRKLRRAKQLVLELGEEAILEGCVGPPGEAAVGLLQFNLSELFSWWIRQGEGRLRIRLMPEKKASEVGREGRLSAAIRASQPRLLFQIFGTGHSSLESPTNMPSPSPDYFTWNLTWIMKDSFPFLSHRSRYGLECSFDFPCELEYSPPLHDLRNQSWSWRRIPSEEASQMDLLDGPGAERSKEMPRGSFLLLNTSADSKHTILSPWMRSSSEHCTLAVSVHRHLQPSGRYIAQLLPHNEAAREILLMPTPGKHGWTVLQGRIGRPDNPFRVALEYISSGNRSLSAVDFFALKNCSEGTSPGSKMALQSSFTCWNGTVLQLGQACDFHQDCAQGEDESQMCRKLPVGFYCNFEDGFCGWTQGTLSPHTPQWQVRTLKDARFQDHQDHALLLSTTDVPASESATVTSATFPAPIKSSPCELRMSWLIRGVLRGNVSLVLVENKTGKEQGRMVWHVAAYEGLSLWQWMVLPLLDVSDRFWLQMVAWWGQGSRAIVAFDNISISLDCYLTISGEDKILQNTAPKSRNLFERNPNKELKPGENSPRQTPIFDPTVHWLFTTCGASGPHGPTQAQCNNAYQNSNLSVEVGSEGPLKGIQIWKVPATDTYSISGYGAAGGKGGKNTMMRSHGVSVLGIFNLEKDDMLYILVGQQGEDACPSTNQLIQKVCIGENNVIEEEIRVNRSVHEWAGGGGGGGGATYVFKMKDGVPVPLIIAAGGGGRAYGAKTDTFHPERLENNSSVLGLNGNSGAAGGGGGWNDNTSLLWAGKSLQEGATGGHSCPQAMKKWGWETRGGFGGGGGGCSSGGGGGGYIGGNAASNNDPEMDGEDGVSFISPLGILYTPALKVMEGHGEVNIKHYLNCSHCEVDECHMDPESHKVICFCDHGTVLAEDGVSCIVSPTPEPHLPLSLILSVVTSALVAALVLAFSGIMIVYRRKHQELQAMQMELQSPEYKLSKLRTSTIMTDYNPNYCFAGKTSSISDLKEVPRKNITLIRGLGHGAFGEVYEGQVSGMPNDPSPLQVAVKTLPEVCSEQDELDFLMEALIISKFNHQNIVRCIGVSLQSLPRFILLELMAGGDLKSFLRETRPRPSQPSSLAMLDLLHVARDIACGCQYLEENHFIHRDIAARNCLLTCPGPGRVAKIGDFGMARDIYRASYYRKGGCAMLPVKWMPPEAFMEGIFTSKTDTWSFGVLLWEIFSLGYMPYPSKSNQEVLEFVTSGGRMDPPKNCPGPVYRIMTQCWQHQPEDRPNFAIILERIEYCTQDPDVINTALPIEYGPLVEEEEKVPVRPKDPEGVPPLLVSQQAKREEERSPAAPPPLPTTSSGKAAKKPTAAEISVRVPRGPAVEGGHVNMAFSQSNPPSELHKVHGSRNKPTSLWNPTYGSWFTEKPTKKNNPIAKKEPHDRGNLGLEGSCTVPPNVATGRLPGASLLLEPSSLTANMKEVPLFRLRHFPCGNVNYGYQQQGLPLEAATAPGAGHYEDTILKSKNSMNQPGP", "conditions": "ALK (GST-HIS-tag), singlicate", "description": "as §1"}, "[12]": {"target": "320 wild-type protein kinases (Homo sapiens, UniProt Q13153)", "conditions": "singlicate", "description": "as §1"}, "[13]": {"target": "320 wild-type protein kinases (Homo sapiens, UniProt P48729)", "sequence (P48729 whole entry)": "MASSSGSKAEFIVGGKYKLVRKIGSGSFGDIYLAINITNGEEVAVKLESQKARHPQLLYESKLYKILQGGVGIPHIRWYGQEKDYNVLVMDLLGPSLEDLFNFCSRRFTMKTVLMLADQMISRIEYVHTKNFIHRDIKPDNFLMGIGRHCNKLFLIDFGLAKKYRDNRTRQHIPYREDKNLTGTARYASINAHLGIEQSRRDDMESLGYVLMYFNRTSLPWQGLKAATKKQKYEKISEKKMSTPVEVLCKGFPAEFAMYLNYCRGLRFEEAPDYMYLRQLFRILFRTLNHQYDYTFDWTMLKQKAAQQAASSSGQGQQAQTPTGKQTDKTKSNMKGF", "conditions": "singlicate", "description": "as §1"}}, "note": "Like-named read-outs stand apart in the source and are kept apart here."}
{"compound": "C#Cc1cc(Nc2ncnc3cc(I)ccc23)ccc1Cl", "note": "[Compound 41]", "values": [{"measurement": "Residual activity", "setting": "[1]; PAK3, 1.0E-06 M", "result": "75 % of control"}, {"measurement": "Residual activity", "setting": "[1]; PAK3, 1.0E-07 M", "result": "96 % of control"}, {"measurement": "Residual activity", "setting": "[2]; MARK1, 1.0E-06 M", "result": "85 % of control"}, {"measurement": "Residual activity", "setting": "[2]; MARK1, 1.0E-07 M", "result": "94 % of control"}, {"measurement": "Residual activity", "setting": "[3]; 1.0E-06 M", "result": "89 % of control"}, {"measurement": "Residual activity", "setting": "[3]; 1.0E-07 M", "result": "99 % of control"}, {"measurement": "Residual activity", "setting": "[4]; 1.0E-06 M", "result": "84 % of control"}, {"measurement": "Residual activity", "setting": "[4]; 1.0E-07 M", "result": "97 % of control"}, {"measurement": "Residual activity", "setting": "[5]; EPHB1, 1.0E-06 M", "result": "87 % of control"}, {"measurement": "Residual activity", "setting": "[5]; EPHB1, 1.0E-07 M", "result": "103 % of control"}, {"measurement": "Residual activity, ZAK", "setting": "[6]; assay conc. 1.0E-06 M", "result": "85 % of control"}, {"measurement": "Residual activity, ZAK", "setting": "[6]; assay conc. 1.0E-07 M", "result": "98 % of control"}, {"measurement": "Residual activity, TEC", "setting": "[7]; assay conc. 1.0E-06 M", "result": "90 % of control"}, {"measurement": "Residual activity, TEC", "setting": "[7]; assay conc. 1.0E-07 M", "result": "96 % of control"}, {"measurement": "Residual activity", "setting": "[8]; EPHA2, 1.0E-06 M", "result": "91 % of control"}, {"measurement": "Residual activity", "setting": "[8]; EPHA2, 1.0E-07 M", "result": "90 % of control"}, {"measurement": "Residual activity", "setting": "[9]; 1.0E-06 M", "result": "90 % of control"}, {"measurement": "Residual activity", "setting": "[9]; 1.0E-07 M", "result": "110 % of control"}, {"measurement": "Residual activity", "setting": "[10]; ACK1, 1.0E-06 M", "result": "98 % of control"}, {"measurement": "Residual activity", "setting": "[10]; ACK1, 1.0E-07 M", "result": "134 % of control"}, {"measurement": "Residual activity", "setting": "[11]; 1.0E-06 M", "result": "93 % of control"}, {"measurement": "Residual activity", "setting": "[11]; 1.0E-07 M", "result": "102 % of control"}, {"measurement": "Residual activity", "setting": "[12]; PAK1, 1.0E-06 M", "result": "92 % of control"}, {"measurement": "Residual activity", "setting": "[12]; PAK1, 1.0E-07 M", "result": "87 % of control"}, {"measurement": "Residual activity", "setting": "[13]; CK1-alpha1, 1.0E-06 M", "result": "99 % of control"}, {"measurement": "Residual activity", "setting": "[13]; CK1-alpha1, 1.0E-07 M", "result": "104 % of control"}]}
{"compound": "C#Cc1cc(Nc2ncnc3cc(OC)c(OC)cc23)ccc1Cl", "note": "[Compound 45]", "values": [{"measurement": "Residual activity", "setting": "[1]; PAK3, 1.0E-06 M", "result": "92 % of control"}, {"measurement": "Residual activity", "setting": "[1]; PAK3, 1.0E-07 M", "result": "98 % of control"}, {"measurement": "Residual activity", "setting": "[2]; MARK1, 1.0E-06 M", "result": "93 % of control"}, {"measurement": "Residual activity", "setting": "[2]; MARK1, 1.0E-07 M", "result": "93 % of control"}, {"measurement": "Residual activity", "setting": "[3]; 1.0E-06 M", "result": "88 % of control"}, {"measurement": "Residual activity", "setting": "[3]; 1.0E-07 M", "result": "87 % of control"}, {"measurement": "Residual activity", "setting": "[4]; 1.0E-06 M", "result": "91 % of control"}, {"measurement": "Residual activity", "setting": "[4]; 1.0E-07 M", "result": "106 % of control"}, {"measurement": "Residual activity", "setting": "[5]; EPHB1, 1.0E-06 M", "result": "82 % of control"}, {"measurement": "Residual activity", "setting": "[5]; EPHB1, 1.0E-07 M", "result": "86 % of control"}, {"measurement": "Residual activity, ZAK", "setting": "[6]; assay conc. 1.0E-06 M", "result": "80 % of control"}, {"measurement": "Residual activity, ZAK", "setting": "[6]; assay conc. 1.0E-07 M", "result": "100 % of control"}, {"measurement": "Residual activity, TEC", "setting": "[7]; assay conc. 1.0E-06 M", "result": "92 % of control"}, {"measurement": "Residual activity, TEC", "setting": "[7]; assay conc. 1.0E-07 M", "result": "108 % of control"}, {"measurement": "Residual activity", "setting": "[8]; EPHA2, 1.0E-06 M", "result": "81 % of control"}, {"measurement": "Residual activity", "setting": "[8]; EPHA2, 1.0E-07 M", "result": "87 % of control"}, {"measurement": "Residual activity", "setting": "[9]; 1.0E-06 M", "result": "72 % of control"}, {"measurement": "Residual activity", "setting": "[9]; 1.0E-07 M", "result": "102 % of control"}, {"measurement": "Residual activity", "setting": "[10]; ACK1, 1.0E-06 M", "result": "63 % of control"}, {"measurement": "Residual activity", "setting": "[10]; ACK1, 1.0E-07 M", "result": "100 % of control"}, {"measurement": "Residual activity", "setting": "[11]; 1.0E-06 M", "result": "63 % of control"}, {"measurement": "Residual activity", "setting": "[11]; 1.0E-07 M", "result": "102 % of control"}, {"measurement": "Residual activity", "setting": "[12]; PAK1, 1.0E-06 M", "result": "95 % of control"}, {"measurement": "Residual activity", "setting": "[12]; PAK1, 1.0E-07 M", "result": "91 % of control"}, {"measurement": "Residual activity", "setting": "[13]; CK1-alpha1, 1.0E-06 M", "result": "95 % of control"}, {"measurement": "Residual activity", "setting": "[13]; CK1-alpha1, 1.0E-07 M", "result": "98 % of control"}]}
